# Experimental data as given in patent US5132299A, “11β-phenyl-4,9,15-estratrienes, their manufacture and pharmaceutical preparations containing same” (Schering Aktiengesellschaft, priority 1987, dated 1992).
# Legend:
# [1] = system: tyrosine amino-transferase (TAT) in RHC (Rat Hepatoma Cells); experiment: Antiglucocorticoid activity: tyrosine amino-transferase (TAT) induction in RHC cultures; type: cell-based; conditions: for EC (max): Rattus norvegicus, read-out: concentration of max. TAT activity (induction); for antiglucocorticoid activity as % of the activity of the standard compound RU 486 (C): TAT test in RHC, simultaneous treatment with corticoid
# Experimental: To identify the antiglucocorticoid activity, the effect of the substances in accordance with the invention on the tyrosine amino-transferase was determined. The test system is based on measurement of the activity of the liver enzyme tyrosine amino-transferase (TAT) in cultures of RHC (Rat Hepatoma Cells). The enzyme catalyzes the first step in the metabolism of tyrosine and can be induced by glucocorticoids both in the liver and in hepatoma cells. The activity is easy to measure in raw extracts (Granner and Tomkins, (1970) Meth. Enzymol. 15, 633). The enzyme converts the amino group of tyrosine to 2-oxoglutaric acid. Glutaminic acid and p-hydroxy-phenylpyruvate are formed. […] Its measured absorption lies at 331 nm. […] The activity can be stimulated by a factor of 4 to 6 above basal value. Simultaneous treatment with corticoid and antiglucocorticoid leads to a decrease in the TAT activity.
# [2] = system: pregnant rats; experiment: Abortive test with pregnant rats (antigestagenic effect); type: in vivo, rat; conditions: for Abortion Rate n aborting/n treated rats: d5-d7 p.c., autopsy d9 p.c.; for abortive effect in words: dose of 0.3 mg, pregnant rats s.c.; for factor by which more effective than RU 486 (C) in the abortive test: pregnant rats, s.c.
# Experimental: The abortifacient activity was determined to define the antigestagenic effect. The tests were carried out on female rats with a weight of approx. 200 g. […] The date on which sperm are detected was considered the 1st day of pregnancy (=dl p.c.). The animals were treated with the substance to be tested or the solvent after nidation of the blastocysts from d5 p.c. to d7 p.c. The animals were killed on d9 p.c. and the uteri were checked for implants and points of resorption. Photos were made of all uteri. Lack of implants was considered as abortions. The test substances were dissolved in a mixture of benzylbenzoate and castor oil (ratio of 1:4). The vehicle volume per individual dose amounted to 0.2 ml. Treatment was subcutaneous (s.c.).
# [3] = system: guinea pigs; experiment: Abortive effect in guinea pigs; type: in vivo, guinea pig
# Experimental: The abortive effect of the substances in accordance with the invention (A) and (B) was also determined using guinea pigs as test animals.
# The test results gained from guinea pigs permit more reliable predictions to be made on the abortive activity of the tested compound(s) to be expected in the case of humans than is permitted by the data gained with rats.
# [4] = biological target: T1, gestagen receptor (Oryctolagus cuniculus, UniProt P06186); experiment: Gestagen receptor binding test (3H-progesterone displacement, rabbit uterus cytosol)
# T1 sequence (P06186 1-930): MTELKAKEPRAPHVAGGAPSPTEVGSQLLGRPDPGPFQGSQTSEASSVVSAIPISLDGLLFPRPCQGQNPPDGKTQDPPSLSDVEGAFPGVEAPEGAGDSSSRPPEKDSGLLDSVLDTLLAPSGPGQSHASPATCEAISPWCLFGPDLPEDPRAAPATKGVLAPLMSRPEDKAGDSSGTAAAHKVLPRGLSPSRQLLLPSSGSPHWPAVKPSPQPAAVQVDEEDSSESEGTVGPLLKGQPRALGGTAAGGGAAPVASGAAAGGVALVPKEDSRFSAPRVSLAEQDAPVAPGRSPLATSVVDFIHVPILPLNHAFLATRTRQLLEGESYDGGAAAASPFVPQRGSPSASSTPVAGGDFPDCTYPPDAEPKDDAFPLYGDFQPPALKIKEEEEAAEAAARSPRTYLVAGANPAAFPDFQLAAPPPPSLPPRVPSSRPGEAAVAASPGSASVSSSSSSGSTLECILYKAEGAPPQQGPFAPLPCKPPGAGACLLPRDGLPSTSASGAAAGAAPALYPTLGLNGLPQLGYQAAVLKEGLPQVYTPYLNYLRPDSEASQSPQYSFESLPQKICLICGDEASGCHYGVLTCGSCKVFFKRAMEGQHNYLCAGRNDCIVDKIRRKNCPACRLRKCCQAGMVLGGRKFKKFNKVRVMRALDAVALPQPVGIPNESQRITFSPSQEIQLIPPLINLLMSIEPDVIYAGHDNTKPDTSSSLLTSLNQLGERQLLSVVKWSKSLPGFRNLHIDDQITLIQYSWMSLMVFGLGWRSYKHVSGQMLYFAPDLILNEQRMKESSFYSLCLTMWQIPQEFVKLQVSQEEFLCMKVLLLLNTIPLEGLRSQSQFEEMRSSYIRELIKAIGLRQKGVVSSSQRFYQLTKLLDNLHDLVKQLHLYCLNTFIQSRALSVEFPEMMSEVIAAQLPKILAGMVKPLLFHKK
# Experimental: The affinity of the compounds in accordance with the invention to the gestagen receptor is examined with the gestagen receptor binding test. In this test the displacement of the agonist by the antagonist is measured. Cytosol from rabbit uterus homogenate which contains the receptor molecule (a protein) is used in the test. This binds progesterone with high affinity and low capacity. When these receptors are charged with ^3 H-progesterone in the presence of the unlabeled substance to be tested, the extent to which the ^3 H-progesterone is displaced from the receptor depends on the concentration and binding affinity of the compound to be tested. After separation of the receptor-bound progesterone from the non-bound progesterone, the binding can be determined as a percentage and this value plotted against the log of the molar concentration of the test substance. Characteristic dosage-dependent displacement curves are obtained and the concentration of the test substance can be determined which is required to oust the reference substance […] from the receptor.
Structure (SMILES),EC (max) [1],Abortion Rate n aborting/n treated rats ([2]; 0.3 mg/animal/day s.c.),Abortion Rate n aborting/n treated rats ([2]; 1.0 mg/animal/day s.c.),Abortion Rate n aborting/n treated rats ([2]; 3.0 mg/animal/day s.c.),abortifacient effect compared with compound (D) [3],antiglucocorticoid activity as % of the activity of the standard compound RU 486 (C) [1],abortive effect in words [2],factor by which more effective than RU 486 (C) in the abortive test [2],strength in the gestagen receptor binding test compared with standard compound (C) [4]
"C[C@@H]1C[C@H]2[C@@H]3CCC4=CC(=O)C=C[C@]4(C)[C@@]3(F)[C@@H](O)C[C@]2(C)[C@@]1(O)C(=O)CO [dexamethasone, reference compound]",0.1 µM,,,,,,,,
"C[C@]12CCC(=O)C=C1CC[C@@H]1[C@@H]2[C@@H](O)C[C@@]2(C)[C@H]1CC[C@]2(O)C(=O)CO [cortisol, reference compound]",1 µM,,,,,,,,
"CC#C[C@]1(O)CC[C@H]2[C@@H]3CCC4=CC(=O)CCC4=C3[C@@H](c3ccc(C(C)=O)cc3)C[C@@]21C [D, 11β-(4-acetylphenyl)-17β-hydroxy-17α-(prop-1-inyl)-4,9-estradien-3-one, reference compound]",,4/4,4/4,4/4,,,,,
"CC#C[C@]1(O)C=C[C@H]2[C@@H]3CCC4=CC(=O)CCC4=C3[C@@H](c3ccc(C(C)=O)cc3)C[C@@]21C [A, 11β-(4-acetylphenyl)-17β-hydroxy-17α-(prop-1-inyl)-4,9,15-estratrien-3-one]",,4/4,4/4,4/4,strikingly higher abortifacient effect,20-50%,fully abortive,10,much stronger
"CC#C[C@]1(O)CC[C@H]2[C@@H]3CCC4=CC(=O)CCC4=C3[C@@H](c3ccc(N(C)C)cc3)C[C@@]21C [C, 11β-(4-dimethylaminophenyl)-17β-hydroxy-17α-(prop-1-inyl)-4,9,(10)-estradien-3-one, reference compound]",,0/4,2/4,4/4,,,,,
"C#CC[C@]1(O)C=C[C@H]2[C@@H]3CCC4=CC(=O)CCC4=C3[C@@H](c3ccc(C(C)=O)cc3)C[C@@]21C [B, 11β-(4-acetylphenyl)-17β-hydroxy-17α-(prop-2-inyl)-4,9,15-estratrien-3-one]",,4/4,4/4,4/4,strikingly higher abortifacient effect,less than 1%,fully abortive,10,about the same strength
